Experimental data from the NIST ThermoML archive (doi:10.1021/je400184t).
Numbers after ± are expanded uncertainties.

Assay: excess molar enthalpy (molar enthalpy of mixing); xn = mol fraction of the nth substance listed
Conditions: 298.15 K, 101 kPa, Liquid, Calvet calorimetry

CN(CCO)CCO [N-methyldiethanolamine] + c1ccncc1
Conditions	excess molar enthalpy [kcal/mol]
x2 = 0.5606	-0.0203 ± 0.000478
x2 = 0.5629	-0.0203 ± 0.000478
x2 = 0.5652	-0.0201 ± 0.000478
x2 = 0.5675	-0.0201 ± 0.000478
x2 = 0.5698	-0.0198 ± 0.000478
x2 = 0.5721	-0.0198 ± 0.000478
x2 = 0.5744	-0.0191 ± 0.000478
x2 = 0.5767	-0.0196 ± 0.000478
x2 = 0.579	-0.0194 ± 0.000478
x2 = 0.5813	-0.0194 ± 0.000478
x2 = 0.5836	-0.0191 ± 0.000478
x2 = 0.5859	-0.0191 ± 0.000478
x2 = 0.5882	-0.0189 ± 0.000478
x2 = 0.5905	-0.0189 ± 0.000478
x2 = 0.5928	-0.0186 ± 0.000478
x2 = 0.595	-0.0186 ± 0.000478
x2 = 0.5974	-0.0184 ± 0.000478
x2 = 0.5996	-0.0182 ± 0.000478
x2 = 0.6019	-0.0182 ± 0.000478
x2 = 0.6042	-0.0179 ± 0.000478
x2 = 0.6065	-0.0179 ± 0.000478
x2 = 0.6088	-0.0177 ± 0.000478
x2 = 0.6111	-0.0177 ± 0.000478
x2 = 0.6134	-0.0174 ± 0.000478
x2 = 0.6157	-0.0174 ± 0.000478
x2 = 0.618	-0.0172 ± 0.000478
x2 = 0.6203	-0.0172 ± 0.000478
x2 = 0.6226	-0.017 ± 0.000478
x2 = 0.6249	-0.0167 ± 0.000478
x2 = 0.6272	-0.0167 ± 0.000478
x2 = 0.6295	-0.0165 ± 0.000478
x2 = 0.6318	-0.0165 ± 0.000478
x2 = 0.6341	-0.0163 ± 0.000478
x2 = 0.6363	-0.0163 ± 0.000478
x2 = 0.6386	-0.016 ± 0.000478
x2 = 0.6409	-0.016 ± 0.000478
x2 = 0.6432	-0.0158 ± 0.000478
x2 = 0.6455	-0.0155 ± 0.000478
x2 = 0.6478	-0.0155 ± 0.000478
x2 = 0.6501	-0.0153 ± 0.000478
x2 = 0.6524	-0.0153 ± 0.000478
x2 = 0.6547	-0.0151 ± 0.000478
x2 = 0.657	-0.0148 ± 0.000478
x2 = 0.6593	-0.0148 ± 0.000478
x2 = 0.6616	-0.0146 ± 0.000478
x2 = 0.6639	-0.0146 ± 0.000478
x2 = 0.6662	-0.0143 ± 0.000478
x2 = 0.6685	-0.0143 ± 0.000478
x2 = 0.6707	-0.0141 ± 0.000478
x2 = 0.6731	-0.0139 ± 0.000478
x2 = 0.6753	-0.0139 ± 0.000478
x2 = 0.6776	-0.0136 ± 0.000478
x2 = 0.6799	-0.0136 ± 0.000478
x2 = 0.6822	-0.0134 ± 0.000478
x2 = 0.6845	-0.0131 ± 0.000478
x2 = 0.6868	-0.0131 ± 0.000478
x2 = 0.6891	-0.0129 ± 0.000478
x2 = 0.6914	-0.0127 ± 0.000478
x2 = 0.6937	-0.0127 ± 0.000478
x2 = 0.696	-0.0124 ± 0.000478
x2 = 0.6983	-0.0124 ± 0.000478
x2 = 0.7006	-0.0122 ± 0.000478
x2 = 0.7029	-0.012 ± 0.000478
x2 = 0.7052	-0.012 ± 0.000478
x2 = 0.7075	-0.0117 ± 0.000478
x2 = 0.7097	-0.0115 ± 0.000478
x2 = 0.712	-0.0115 ± 0.000478
x2 = 0.7143	-0.0112 ± 0.000478
x2 = 0.7166	-0.0112 ± 0.000478
x2 = 0.7189	-0.011 ± 0.000478
x2 = 0.7212	-0.0108 ± 0.000478
x2 = 0.7235	-0.0108 ± 0.000478
x2 = 0.7258	-0.0105 ± 0.000478
x2 = 0.7281	-0.0103 ± 0.000478
x2 = 0.7304	-0.0103 ± 0.000478
x2 = 0.7327	-0.01 ± 0.000478
x2 = 0.735	-0.0098 ± 0.000478
x2 = 0.7373	-0.0098 ± 0.000478
x2 = 0.7396	-0.00956 ± 0.000478
x2 = 0.7419	-0.00956 ± 0.000478
x2 = 0.7442	-0.00932 ± 0.000478
x2 = 0.7464	-0.00908 ± 0.000478
x2 = 0.7488	-0.00908 ± 0.000478
x2 = 0.751	-0.00884 ± 0.000478
x2 = 0.7533	-0.0086 ± 0.000478
x2 = 0.7556	-0.0086 ± 0.000478
x2 = 0.7579	-0.00837 ± 0.000478
x2 = 0.7602	-0.00813 ± 0.000478
x2 = 0.7625	-0.00813 ± 0.000478
x2 = 0.7648	-0.00789 ± 0.000478
x2 = 0.7671	-0.00765 ± 0.000478
x2 = 0.7694	-0.00765 ± 0.000478
x2 = 0.7717	-0.00741 ± 0.000478
x2 = 0.774	-0.00717 ± 0.000478
x2 = 0.7763	-0.00717 ± 0.000478
x2 = 0.7786	-0.00693 ± 0.000478
x2 = 0.7809	-0.00669 ± 0.000478
x2 = 0.7827	-0.00669 ± 0.000478
x2 = 0.7869	-0.00645 ± 0.000478
x2 = 0.7911	-0.00598 ± 0.000478
x2 = 0.7953	-0.00574 ± 0.000478
x2 = 0.7996	-0.0055 ± 0.000478
x2 = 0.8039	-0.00526 ± 0.000478
x2 = 0.8083	-0.00502 ± 0.000478
x2 = 0.8127	-0.00454 ± 0.000478
x2 = 0.8172	-0.0043 ± 0.000478
x2 = 0.8217	-0.00406 ± 0.000478
x2 = 0.8263	-0.00359 ± 0.000478
x2 = 0.8309	-0.00335 ± 0.000478
x2 = 0.8356	-0.00311 ± 0.000478
x2 = 0.8404	-0.00287 ± 0.000478
x2 = 0.8451	-0.00239 ± 0.000478
x2 = 0.85	-0.00215 ± 0.000478
x2 = 0.8549	-0.00191 ± 0.000478
x2 = 0.8598	-0.00167 ± 0.000478
x2 = 0.8648	-0.0012 ± 0.000478
x2 = 0.8699	-0.000956 ± 0.000478
x2 = 0.875	-0.000717 ± 0.000478
x2 = 0.8802	-0.000478 ± 0.000478
x2 = 0.8855	-0.000239 ± 0.000478
x2 = 0.8908	0 ± 0.000478
x2 = 0.8962	0.000239 ± 0.000478
x2 = 0.9016	0.000478 ± 0.000478
x2 = 0.9071	0.000717 ± 0.000478
x2 = 0.9127	0.000956 ± 0.000478
x2 = 0.9183	0.0012 ± 0.000478
x2 = 0.9241	0.00143 ± 0.000478
x2 = 0.9298	0.00143 ± 0.000478
x2 = 0.9357	0.00167 ± 0.000478
x2 = 0.9416	0.00167 ± 0.000478
x2 = 0.9477	0.00167 ± 0.000478
x2 = 0.9538	0.00191 ± 0.000478
x2 = 0.9599	0.00167 ± 0.000478
x2 = 0.9662	0.00167 ± 0.000478
x2 = 0.9725	0.00167 ± 0.000478
x2 = 0.9789	0.00143 ± 0.000478
x2 = 0.9854	0.0012 ± 0.000478
x2 = 0.992	0.000717 ± 0.000478
x2 = 0.9987	0.000239 ± 0.000478
